“And” between values parts separate entries of the source, which are not always exact repeats. Identical values can stand only once.
What was measured:
[1] = species: Rattus norvegicus; experiment: Bioconversion to albendazole sulfonic in rats at 8 hr; not detectable; assay type: functional, organism-based
[2] = species: Rattus norvegicus; experiment: Bioconversion to albendazole sulfonic in rats at 6 hr; not detectable; assay type: functional, organism-based
[3] = species: Rattus norvegicus; experiment: Bioconversion to albendazole in rats at 2 hr; not detectable; assay type: functional, organism-based
[4] = species: Rattus norvegicus; experiment: Bioconversion to albendazole sulfonic in rats at 10 hr; assay type: functional
[5] = species: Rattus norvegicus; experiment: Bioconversion to albendazole sulfonic in rats at 4 hr; assay type: functional
[6] = species: Rattus norvegicus; experiment: Bioconversion to albendazole in rats at 8 hr; not detectable; assay type: functional, organism-based
[7] = species: Rattus norvegicus; experiment: Bioconversion to albendazole in rats at 12 hr; not detectable; assay type: functional, organism-based
[8] = species: Rattus norvegicus; experiment: Bioconversion to albendazole sulfonic in rats at 4 hr; not detectable; assay type: functional, organism-based
[9] = species: Rattus norvegicus; experiment: Bioconversion to albendazole in rats at 4 hr; not detectable; assay type: functional, organism-based
[10] = species: Rattus norvegicus; experiment: Bioconversion to albendazole in rats at 10 hr; detectable; assay type: functional, organism-based
[11] = species: Rattus norvegicus; experiment: Bioconversion to albendazole sulfonic in rats at 12 hr; not detectable; assay type: functional, organism-based
[12] = species: Rattus norvegicus; experiment: Bioconversion to albendazole sulfonic in rats at 12 hr; assay type: functional
[13] = species: Rattus norvegicus; experiment: Bioconversion to albendazole in rats at 8 hr; assay type: functional
[14] = species: Rattus norvegicus; experiment: Bioconversion to albendazole sulfonic in rats at 8 hr; detectable; assay type: functional, organism-based
[15] = species: Rattus norvegicus; experiment: Bioconversion to albendazole sulfonic in rats at 2 hr; not detectable; assay type: functional, organism-based
[16] = species: Rattus norvegicus; experiment: Bioconversion to albendazole sulfonic in rats at 10 hr; not detectable; assay type: functional, organism-based
[17] = species: Rattus norvegicus; experiment: Bioconversion to albendazole sulfonic in rats at 6 hr; assay type: functional
[18] = species: Rattus norvegicus; experiment: Bioconversion to albendazole in rats at 8 hr; detectable; assay type: functional, organism-based
[19] = species: Rattus norvegicus; experiment: Bioconversion to albendazole in rats at 6 hr; detectable; assay type: functional, organism-based
[20] = species: Rattus norvegicus; experiment: Bioconversion to albendazole in rats at 12 hr; detectable; assay type: functional, organism-based
[21] = species: Rattus norvegicus; experiment: Bioconversion to albendazole in rats at 2 hr; detectable; assay type: functional, organism-based
[22] = species: Rattus norvegicus; experiment: Bioconversion to albendazole sulfonic in rats at 2 hr; assay type: functional
[23] = species: Rattus norvegicus; experiment: Bioconversion to albendazole in rats at 6 hr; not detectable; assay type: functional, organism-based
[24] = species: Rattus norvegicus; experiment: Bioconversion to albendazole in rats at 4 hr; detectable; assay type: functional, organism-based
[25] = species: Rattus norvegicus; experiment: Bioconversion to albendazole in rats at 12 hr; assay type: functional
[26] = species: Rattus norvegicus; experiment: Bioconversion to albendazole in rats at 2 hr; assay type: functional
[27] = species: Rattus norvegicus; experiment: Bioconversion to albendazole sulfonic in rats at 8 hr; assay type: functional

Compound | Activity [1] | Activity [2] | Activity [4] | Activity [5] | Activity [9] | Activity [10] | Activity [12] | Activity [16] | Activity [17] | Activity [18] | Activity [19] | Activity [20] | Activity [21] | Activity [22] | other results
CCCSc1ccc([N+](=O)[O-])c(NC(=S)NC(=O)OC)c1 | Not detectable | Not detectable | 0.0889 µg/mL | 0.096 µg/mL | Not detectable | Detectable | 0.1622 µg/mL | Not detectable |  |  |  |  |  |  | Activity [3]: Not detectable; Activity [6]: Not detectable; Activity [7]: Not detectable; Activity [8]: Not detectable; Activity [11]: Not detectable; Activity [13]: 0.0792 µg/mL; Activity [14]: Detectable; Activity [15]: Not detectable
CCCSc1ccc(NC(=S)NC(=O)OC)c([N+](=O)[O-])c1 | Not detectable | Not detectable |  | 0.0927 µg/mL and 0.0958 µg/mL | Not detectable | Detectable | 0.2704 µg/mL | Not detectable | 0.1633 µg/mL | Detectable | Detectable | Detectable | Detectable | 0.1802 µg/mL and 0.1088 µg/mL | Activity [23]: Not detectable
CCCSc1ccc2[nH]c(NC(=O)OC)nc2c1 [ALBENDAZOLE] |  |  | 0.2696 µg/mL and 0.1297 µg/mL | 0.3084 µg/mL and 0.1935 µg/mL |  | Detectable |  |  | 0.2875 µg/mL and 0.4081 µg/mL | Detectable | Detectable | Detectable | Detectable | 0.593 µg/mL and 0.245 µg/mL | Activity [24]: Detectable; Activity [25]: 0.098 µg/mL; Activity [26]: 0.055 µg/mL; Activity [27]: 0.28 µg/mL and 0.1113 µg/mL

Source: ChEMBL document CHEMBL1129169, “Preparation of N-methoxycarbonyl-N-[2-nitro-4(5)-propylthiophenyl]thiourea as prodrugs of albendazole” (1996)
